The source of these data is US20250090626A1, “NEW PEPTIDE AND USES THEREOF” (Neo Cremar Co., Ltd., priority 2021, published 2025).

In test [1] the test system is 3T3L1 cells. Description: Adipodifferentiation of 3T3L1 cells, Oil red O staining. The format is cell-based, mouse. Particulars: 3T3L1, adipocyte-induced differentiation medium with Ac-MIF1, 4 days; FIG. 13B. As for the experimental part:
For differentiation of 3T3L1 cells into adipocytes, when the cells grew about 100% or more, they were replaced with differentiation medium (DMEM+10% FBS+1% P/S+10 ug/ml insulin+1 μM dexametazone+0.5 μM IBMX (3-isobutyl-1-methylxanthine)) and cultured for 2 days. After 2 days, MIF was treated in a medium including 10 ug/ml insulin to induce cell differentiation.
3T3L1 cells were treated with peptides and differentiated for 4 days, then the medium was removed, and the cells were washed with normal saline, treated with 10% formaldehyde, and left for 10 minutes. After 10 minutes, Oil-red O staining agents (6 ([…] Oil-red O reagent+1 ml 100% isopropanol):4 (distilled water)) were treated and left for 1 hour. After 1 hour, cells were washed with normal saline and then observed under a microscope. To measure the Oil-red O stained in the intracellularly differentiated cells, 100% isopropanol was added and collected, followed by measurement at 510 nm.

Test [2] has as its system C2C12 cells. Put plainly: Myodifferentiation, Giemsa staining, root canal formation and fusion index. The format is cell-based, mouse. Particulars: 3 days. As for the experimental part: When C2C12 cells were 70% grown, media were replaced with myodifferentiation medium added with MSTN protein (1 ng), Ac-MIF1 (1000 nM), and Ac-MIF1 (1000 nM)+MSTN protein (1 ng) from proliferation medium, followed by culture for 3 days.
When the cells grew more than 70% for differentiation of myoblasts into myocytes, they were cultured for 3 days by replacing with a differentiation medium (DMEM+2% FBS+1% P/S). The medium was replaced once daily, and the cells were cultured at 37° C.
The cell medium was removed, and the cells were washed with PBS. After washing, a methanol:PBS reagent in a 1:1 volume ratio was treated, followed by fixation for 2 minutes. Additionally, after a methanol:PBS reagent in a 2:1 volume ratio was added, fixation was followed for additional 2 minutes. After 2 minutes, 0.04% Giemsa reagent was added, and then the cells were left for 30 minutes, washed with PBS after 30 minutes, and observed under a microscope, with 3 photographs taken for each cell (300×). In the photographs taken, the number of fused nuclei in the root canal cells was counted, the number of nuclei of total cells was counted, and the number of fused nuclei was divided by the number of nuclei of the total cells to obtain the % value.

Test [3] has as its system 3T3L1 cells. Put plainly: 3T3L1 cell proliferation (MTT method). The format is cell-based, mouse. Particulars: 3T3L1, Ac-MIF1 1000 nM, 2 days, FIG. 13A. Here is the method: 3T3L1 cells, mouse fibroblasts, were cultured in Dulbecco's Modified Eagle's Medium (DMEM)+10% fetal bovine serum (FBS)+1% penicillin/streptomycin (P/S). To validate the effect of MIF peptide, 3T3L1 cells (2×10^3 cells/ml) were placed in a 12-well cell culture dish, attached for 24 hours, and treated with MIF peptide (1000 nM) for 2 days, followed by observation of cell proliferation by MTT method. The medium was replaced every 2 days, and the cells were cultured at 37° C.
(§1) To validate cell proliferation, the culture medium of the cells was removed, the cells were washed with DMEM, 500 μl of MTT reagent (0.5 mg/ml) dissolved in phosphate buffered saline (PBS) was added to each well, and the cells were left at 37° C. for 1 hour. The reaction solution was removed, and 1000 μl of DMSO was added to each well. Purple formazan crystals were completely dissolved in DMSO, and the absorbance was measured at 540 nm.

Test [4] deals with C2C12 cells. Description: C2C12 cell proliferation (MTT method). Type of test: cell-based, mouse. Particulars: C2C12, peptide 1000 nM, 1 day, MTT; FIG. 4. Here is the method: C2C12 cells, a mouse myoblast line, were cultured in Dulbecco's Modified Eagle's Medium (DMEM)+10% fetal bovine serum (FBS)+1% penicillin/streptomycin (P/S). To validate the effect of MIF peptide, C2C12 cells (2×10^3 cells/ml) were placed in a 12 well cell culture dish and attached for 24 hours, and MIF peptide (1000 nM) was treated for 1 day to observe cell proliferation by MTT method. The medium was replaced every 2 days, and the cells were cultured at 37° C.
as §1

Another test relates to C57BL/6 mice. Put plainly: Myoregeneration effect upon injection of Ac-MIF1 peptide in cardiotoxin-damaged gastrocnemius. Type of test: in vivo, mouse. An excerpt:
The male C57BL/6 mice were purchased from Dae Han Bio Link Co., Ltd., four of which per cage were kept in a temperature-controlled room with a 12-hour light cycle. The animals were fed with a standard rodent diet containing 4.0% (wt/wt) total fat (Rodent NIH-31 Open Formula Auto; Zeigler Bros., Inc., Gardners, PA, USA) and water. All experiments involving animals complied with the guidelines (YUMC-AEC2015-006) issued by the Animal Control Committee of Youngnam University's Animal Research Institute. The MSTN knock-out mouse was provided by a laboratory at Seoul National University. Normal, MSTN+/− (heterozygous), and MSTN−/− (homozygous) adipose tissues were fixed by collecting from 6-week-old mice and stored at −80° C. until required for analysis.
Muscle tissues containing paraffin was subjected to deparaffinization with xylene and ethanol and hydration, respectively, and the tissue was soaked in 0.3% hydrogen peroxide water (H2O2)/methanol for 15 minutes to stop endogenous peroxidase activity. Then, tissues were stained with hematoxylin/eosin for morphological observation or reacted with 1% normal goat serum at room temperature for 1 hour to block a reaction with non-specific antibodies, followed by a reaction with the primary antibody (1:50) at 4° C. for over 16 hours. After 16 hours, washing was performed 3 times with PBS, followed by a reaction with secondary antibody (1:100) with HRP conjugated at room temperature for 1 hour. Horse radish peroxidase-conjugated streptavidin was added to detect the expression of the protein, followed by observation under a microscope.
In order to observe the myoregeneration effect following MIF peptide injection, mice were injected with Ac-MIF 1 peptide and injected/uninjected with cardiotoxin (hereinafter referred to as CTX) into the muscle, followed by observation of the morphology and regeneration of the muscle. A day after C57BL/6 mice were injected with Ac-MIF1 peptide (1.125 mM), […] cardiotoxin was injected into the gastrocnemius. Muscle tissues were sampled 7 days after CTX injection.
Paraffin-embedded muscle sections were deparaffinized using xylene, rehydrated using a concentration gradient of ethanol, stained with hematoxylin and eosin, observed under an optical microscope, magnified at 400× scale, and photographed, followed by measurement of the diameter of muscle fibers using Image J software.

[5] abbreviates: muscle injected with Ac-MIF1 peptide, 7 days after CTX, FIG. 10A.
Setting [6] is: muscle injected with Ac-MIF1 peptide, 7 days after CTX, FIG. 10B.

No end group written: not given here.

For “Ac-VDFEAFWDWG [Ac-MIF1, MIF1 with N-terminus acetylated, 10 mer]”, the “fat accumulation (Oil-red O intensity), decrease compared to cells without peptide treatment” value in the test on 3T3L1 cells [1] is listed as 8%. In addition, the “fusion index, increase compared to untreated cells” value with C2C12 cells [2] (C2C12, differentiation medium including peptide) amounted to 11%. In addition, the “root canal formation compared to untreated cells” value in the test on C2C12 cells [2] (C2C12, differentiation medium) is reported as “increased”. Moreover, the “fusion index compared to untreated cells” value with C2C12 cells [2] (C2C12, muscle differentiation medium, Ac-MIF1 1000 nM, FIG. 9) is “increased”. For the same substance, the “proliferation of 3T3L1 cells, decrease compared to cells without peptide treatment” value in the test on 3T3L1 cells [3] was determined as 8%. Also, the “cell proliferation, increase compared to cells without peptide treatment” value in the test on C2C12 cells [4] worked out at 24%. Also, the “muscle weight compared to muscle without injection” value in the test with C57BL/6 mice (7 days after CTX injection) is reported as “no significant difference”. Moreover, the muscle weight in the test on C57BL/6 mice (CTX + Ac-MIF 1, gastrocnemius, 7 days after CTX injection) is listed as 0.140 ± 0.003 g. In the test with C57BL/6 mice (setting [5]), the “MSTN mRNA expression in muscle” value was “increased”, the “MYL2 mRNA expression in muscle” value is on record as “increased” and the “MYOD mRNA expression in muscle” value is “increased”. In the test with C57BL/6 mice (setting [6]), the “MYL2 protein expression in muscle” value is on record as “increased”, the “MYOD protein expression in muscle” value is reported as “increased”, the “MYOG protein expression in muscle” value is listed as “increased” and the “Pax7 protein expression in muscle” value was “increased”. In addition, the “diameter of the muscle fibers compared to without peptide injection” value in the test on C57BL/6 mice (muscle injected with Ac-MIF1 peptide, 7 days after CTX, FIG. 10C) is reported as “increased”.
